Data as given in the supplement of paper PMC10307832.

What was measured:
Experiment in all cases: relative viability (nuclei count vs DMSO), 5 days (fraction); higher = more cells survive
Elesclomol + Trametinib = compound: CN(NC(=O)CC(=O)NN(C)C(=S)c1ccccc1)C(=S)c1ccccc1 [Elesclomol] + CC(=O)Nc1cccc(-n2c(=O)n(C3CC3)c(=O)c3c(Nc4ccc(I)cc4F)n(C)c(=O)c(C)c32)c1 [Trametinib] (partner 0.02 µM)
How it was run: (§1)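 Five library-drug doses in √10 steps were combined with a fixed anchor-drug dose, or a single drug was given alone, by pin tool to lung cancer cell lines in 1536-well plates the day after seeding. Nuclei were stained and counted after 5 days. Relative viability is the nuclei count in treated wells over that in vehicle wells, taken as the median of duplicate plates.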

Elesclomol + Pictilisib = compound: CN(NC(=O)CC(=O)NN(C)C(=S)c1ccccc1)C(=S)c1ccccc1 [Elesclomol] + CS(=O)(=O)N1CCN(Cc2cc3nc(-c4cccc5[nH]ncc45)nc(N4CCOCC4)c3s2)CC1 [Pictilisib] (partner 1 µM)
How it was run: as §1

Elesclomol + Crizotinib = compound: CN(NC(=O)CC(=O)NN(C)C(=S)c1ccccc1)C(=S)c1ccccc1 [Elesclomol] + C[C@@H](Oc1cc(-c2cnn(C3CCNCC3)c2)cnc1N)c1c(Cl)ccc(F)c1Cl [Crizotinib] (partner 1 µM)
How it was run: as §1

Elesclomol + AZD7762 = compound: CN(NC(=O)CC(=O)NN(C)C(=S)c1ccccc1)C(=S)c1ccccc1 [Elesclomol] + NC(=O)Nc1cc(-c2cccc(F)c2)sc1C(=O)N[C@H]1CCCNC1 [AZD7762] (partner 0.2 µM)
How it was run: as §1

Elesclomol + Olaparib = compound: CN(NC(=O)CC(=O)NN(C)C(=S)c1ccccc1)C(=S)c1ccccc1 [Elesclomol] + O=C(c1cc(Cc2n[nH]c(=O)c3ccccc23)ccc1F)N1CCN(C(=O)C2CC2)CC1 [Olaparib] (partner 8 µM)
How it was run: as §1

Cell Line | relative viability (Elesclomol + Trametinib; first compound 0.003162 µM) | relative viability (Elesclomol + Trametinib; first compound 0.01 µM) | relative viability (Elesclomol + Trametinib; first compound 0.03162 µM) | relative viability (Elesclomol + Trametinib; first compound 0.1 µM) | relative viability (Elesclomol + Pictilisib; first compound 0.003162 µM) | relative viability (Elesclomol + Pictilisib; first compound 0.01 µM) | relative viability (Elesclomol + Pictilisib; first compound 0.03162 µM) | relative viability (Elesclomol + Pictilisib; first compound 0.1 µM) | relative viability (Elesclomol + Crizotinib; first compound 0.003162 µM) | relative viability (Elesclomol + Crizotinib; first compound 0.01 µM) | relative viability (Elesclomol + Crizotinib; first compound 0.03162 µM) | relative viability (Elesclomol + Crizotinib; first compound 0.1 µM) | relative viability (Elesclomol + AZD7762; first compound 0.003162 µM) | relative viability (Elesclomol + AZD7762; first compound 0.01 µM) | relative viability (Elesclomol + AZD7762; first compound 0.03162 µM) | relative viability (Elesclomol + AZD7762; first compound 0.1 µM) | relative viability (Elesclomol + Olaparib; first compound 0.003162 µM) | relative viability (Elesclomol + Olaparib; first compound 0.01 µM) | relative viability (Elesclomol + Olaparib; first compound 0.03162 µM) | relative viability (Elesclomol + Olaparib; first compound 0.1 µM)
NCI-H2170 | 0.949 | 0.95 | 0.898 | 0.607 | 0.328 | 0.266 | 0.298 | 0.193 | 1.26 | 0.956 | 1.17 | 0.653 | 0.896 | 0.846 | 0.852 | 0.493 | 0.55 | 0.558 | 0.638 | 0.344
NCI-H1993 | 0.544 | 0.576 | 0.495 | 0.339 | 0.798 | 0.909 | 0.807 | 0.603 | 0.812 | 0.836 | 0.603 | 0.577 | 0.712 | 0.618 | 0.475 | 0.315 | 0.967 | 0.789 | 0.516 | 0.393
NCI-H460 | 0.117 | 0.203 | 0.0139 | 0.0132 | 0.361 | 0.291 | 0.309 | 0.259 | 0.624 | 0.0306 | 0.0112 | 0.0109 | 0.547 | 0.513 | 0.232 | 0.048 | 0.421 | 0.251 | 0.194 | 0.0303
NCI-H1975 | 0.356 | 0.229 | 0.14 | 0.125 | 0.306 | 0.179 | 0.2 | 0.123 | 0.934 | 0.835 | 0.407 | 0.132 | 0.779 | 0.406 | 0.292 | 0.212 | 0.752 | 0.633 | 0.337 | 0.183
RERF-LC-KJ | 0.753 | 0.536 | 0.572 | 0.28 | 0.408 | 0.19 | 0.243 | 0.234 | 0.832 | 0.473 | 0.373 | 0.336 | 1 | 0.868 | 0.741 | 0.297 | 0.613 | 0.473 | 0.326 | 0.323
NCI-H322M | 0.497 | 0.423 | 0.298 | 0.217 | 0.478 |  | 0.519 | 0.382 | 0.911 |  | 0.98 | 0.552 | 0.484 | 0.411 | 0.259 | 0.161 | 0.665 | 0.572 | 0.388 | 0.208
NCI-H1651 | 0.854 | 0.842 | 0.858 | 0.538 | 0.454 | 0.323 | 0.177 | 0.0888 | 0.81 | 0.833 | 0.951 | 0.531 | 0.462 | 0.469 | 0.345 | 0.334 | 0.185 | 0.184 | 0.192 | 0.135
HARA | 0.704 | 0.465 | 0.189 | 0.159 | 0.548 | 0.325 | 0.363 | 0.081 | 1.06 | 0.799 | 0.987 | 0.368 | 0.348 | 0.288 | 0.302 | 0.227 | 0.774 | 0.524 | 0.417 | 0.36
